According to US8207222B2, “Nitric oxide releasing derivatives of paracetamol” (Council of Scientific and Industrial Research, priority 2007, dated 2012):
“And” between values parts separate entries of the source, which are not always exact repeats. Identical values can stand only once. “Also recorded” adds a separate entry of the source. Marks after values point to notes of the source that are not given here.

Columns and labels:
liver = liver histopathology (haematoxylin and eosin); type: in vivo, mouse; details: 1000 mg/kg, i.p.; H&E stain
From the text: Histopathology (FIG. 5 Sheet No. 3) For liver histopathology, the livers were removed and portions were fixed in 10% buffered formalin (pH 7.4). They were then processed by standard histopathological techniques, stained with Haematoxylin and Eosin (H&E), and examined for morphologic evaluation for liver injury.^21

[1] = system: acetic acid induced writhing; experiment: acetic acid induced writhing assay (analgesic activity); type: in vivo, Laca mice; details: 100 mg/kg p.o., 30 min prior to i.p. acetic acid, mean ± SEM
Method: Animals: Wistar rats (male 150-200 g) of both sex and Laca mice (male, 25-35 g) procured from Central Animal House, Punjab University, Chandigarh, India were used. Animals were housed under standard laboratory conditions and maintained on rat chow, Animals were allowed free access to food and water until used and fasted 24 hr prior to studies. Analgesic activity (Table 2 and FIG. 1 Sheet No. 1 FIG. 3): Analgesic activity was determined by using abdominal writhing assay. Mice were divided into different groups containing 6 animals in each group. Pain can be induced by injection of irritants into the peritoneal cavity of mice. The animals react with a characteristic stretching behaviour which is called writhing. An irritating agent such as phenylquinone or acetic acid can be injected intraperitoneally to mice and the stretching reaction is evaluated. The most commonly used methods for measuring peripheral analgesic activity are the writhing tests in mice. The details of the experiment carried out are mentioned below: Analgesic activity was determined against acetic acid induced writhing assay. Writhing was induced by intraperitoneal (i.p.) injection of freshly prepared acetic acid solution. Mice were per orally (p.o.) administered paracetamol (1) and synthesized NO-releasing derivatives (12 and 13) at a dose of 100 mg/kg, emulsified in 0.5% sodium carboxy methyl cellulose (sodium CMC) vehicle, 30 min prior to i.p. acetic acid (1% w/v in saline pH 2.7, 10 ml/kg, i.p.). Animals were immediately transferred to individual observation chambers and number of writhes (constriction of abdomen, turning of trunk, and extension of hind Limbs) were monitored over the following 20 minutes, beginning 3 min after the injection of acetic acid. At the end of observation period the animals were killed by cervical dislocation and exsaguination. The average number of writhes in each group of drug treated mice was compared with that of the control group and degree of analgesia was expressed as % inhibition calculated from the equation: % Inhibition=(1−Nt/Nc)×100 Where, Nc=number of writhes in control • Nt=number of writhes in drug treated mice

SGPT/ALT = experiment: plasma marker of liver injury SGPT/ALT, spectrophotometric kit; type: in vivo; details: 1000 mg/kg, 6 hr after administration, vs basal value, mean ± SEM
Method: (§1) Biochemical Assays (Table 3 and FIG. 2 Sheet No. 1 for SGPT(ALT), and Table 4 and FIG. 3 Sheet No. 2 for ALP): Paracetamol was given at a dose of 1000 mg/Kg and an equivalent dose of 1000 mg/Kg of the derivatives 12 and 13 was given p.o. Before administration blood samples of each animal were taken and after 6 hrs the animals were sacrificed to collect blood samples, and the serum was separated out. Measurement of plasma markers of liver Serum Glutamate oxaloacetate transaminase (SGOT) pyruvate transaminase (SGPT) and Alkaline Phosphatase (ALP) were assayed spectrophotometrically using commercially available kits.
(§2) The animals were divided into different groups containing 6-8 animals in each group. Animals were lightly anaesthetized with diethyl ether and blood samples were collected which served as the basal reading of the enzyme to be analyzed. These groups of rats were then treated with paracetamol (1000 mg/Kg, i.p.), and equivalent dose of the test compounds. Control group was treated with an equal volume of vehicle (0.9% w/v sodium chloride containing 20% v/v tween-80). Animals were lightly anesthetized with ethyl ether and blood samples were collected and allowed to coagulate at room temperature for 1 hr, serum was then separated by centrifugation (5,000 rpm for 10 min) at 4° C. and stored at −40.0° C. till estimation. Plasma markers of liver injury were assayed spectrophotometrically using following commercially available kits according to standard laboratory techniques:
(§3) […]. Enzymes like alkaline phosphatase (ALP, EC 3.1.3.1), serum glutamate pyruvate transaminase (SGPT) or alanine aminotransferase (ALT) ([…]) and the total proteins are considered as plasma markers of liver injury. Nitric oxide releasing paracetamol derivatives 12 and 13 were evaluated for their effect on the markers of liver injury like enzymes ALP and SGPT/ALT. The plasma level of these enzymes is found to increase in the case of liver toxicity.

ALP = type: in vivo; details: 1000 mg/kg; 6 hr after administration, vs basal value; mean ± SEM
Method: as §1, §2, §3

[2] = system: carrageenan induced rat paw edema; experiment: carrageenan induced rat paw edema model (anti-inflammatory activity); type: in vivo, Wistar rats; details: 100 mg/kg p.o.; for % Increase in paw volume Mean ± SEM 2 hr: 2 hr after carrageenan challenge; for anti-inflammatory activity (in words): 2 hr and 4 hr; for % Increase in paw volume Mean ± SEM 4 hr: 4 hr after carrageenan challenge
From the text: Animals: Wistar rats (male 150-200 g) of both sex and Laca mice (male, 25-35 g) procured from Central Animal House, Punjab University, Chandigarh, India were used. Animals were housed under standard laboratory conditions and maintained on rat chow, Animals were allowed free access to food and water until used and fasted 24 hr prior to studies.
Experimental conditions: Unless otherwise stated, the following conditions were employed in all experiments. The test compounds were suspended in 0.5% carboxymethylcellulose (CMC) and administered per orally (p.o.). Control animals were given the corresponding amount of vehicle (0.5%, CMC).
Anti-inflammatory activity (Table 1): Anti-inflammatory activity was determined by using carrageenan induced rat paw edema model. Rats were divided into different groups and the drugs were administered to each group.
Paw edema in rats (various modifications and various irritants) is the most widely used method for testing acute and subacute inflammation. It is based upon the ability of anti-inflammatory agents to inhibit the edema produced in the hind paw of the rat after injection of a phlogistic agent. Many phlogistic agents (irritants) have been used, such as brewer's yeast, formaldehyde, dextran, egg albumin, kaolin, sulfated polysaccharides like carrageenin or naphthoylheparamine. The volume of the injected paw is measured before and after application of the irritant and the paw volume of the treated animals is compared to the control. The details of the experiment carried out are described below:
The paracetamol (1) and synthesized NO-releasing derivatives (12 and 13) were administered p.o. at a dose of 100 mg/kg, p.o., emulsified in 0.5% sodium carboxy methyl cellulose (0.5% sodium CMC). Anti-inflammatory activity was determined by using carrageenan induced rat paw edema model. Rats were divided into different groups and the drugs/derivatives were administered to each group. Acute edema was induced in left hind paw of rats by injecting freshly prepared solution of carrageenan (Type IV, 0.1 ml, 1%) under plantar region of left hind paw. In the right paw, saline ([…], 0.9%) was injected, which served as control for comparison. The increase in paw volume was measured by using plethysmometer (water displacement, UGO BASILE, Varese, Italy) at 2 hr and 4 hr after carrageenan challenge. Percentage change (increase) in paw volume was calculated and expressed as the amount of inflammation. % increase in paw volume at any time=(V1−Vr)/Vr×100
Where, V1 Volume of left paw • Vr=Volume of right paw (control)

cox-2 (ovine) = molecular target: T1, cox-2 (ovine) (Ovis aries, UniProt P79208); experiment: In vitro cox-2 (ovine) inhibitory assay; type: biochemical; details: prostaglandin quantified by EIA, concentration not given
T1 construct: purchased Cayman Chemical Company, USA
T1 sequence (P79208 17-603): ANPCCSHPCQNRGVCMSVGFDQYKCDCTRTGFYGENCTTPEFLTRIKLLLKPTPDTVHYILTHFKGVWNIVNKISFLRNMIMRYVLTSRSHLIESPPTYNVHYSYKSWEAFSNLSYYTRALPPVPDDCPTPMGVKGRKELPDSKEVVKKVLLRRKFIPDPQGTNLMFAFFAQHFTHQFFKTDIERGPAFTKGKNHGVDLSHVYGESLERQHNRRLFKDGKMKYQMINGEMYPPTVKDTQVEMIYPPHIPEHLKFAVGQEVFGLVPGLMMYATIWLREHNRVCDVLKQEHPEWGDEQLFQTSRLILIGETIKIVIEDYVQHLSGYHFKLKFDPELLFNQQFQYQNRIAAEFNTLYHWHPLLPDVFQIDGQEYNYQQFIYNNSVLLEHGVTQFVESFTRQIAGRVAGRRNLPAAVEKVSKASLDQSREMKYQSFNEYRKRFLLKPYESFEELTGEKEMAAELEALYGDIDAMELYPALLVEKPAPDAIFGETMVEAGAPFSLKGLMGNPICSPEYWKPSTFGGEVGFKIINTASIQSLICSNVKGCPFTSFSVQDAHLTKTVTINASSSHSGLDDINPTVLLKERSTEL
From the text: In vitro cox-2 (ovine) inhibitory assay: The prostaglandin product is quantified via enzyme immunoassay (EIA) using a broadly specific antibody that binds to all major prostaglandin compounds. Assay kit was purchased from Cayman Chemical Company, USA.

[3] = in vivo nitric oxide release, serum nitrate/nitrite by Cayman kit; details: for NO serum level: dose of 100 mg/kg body weight, control 182.1±0.68, in µmol/L; for serum nitrate/nitrite concentration: 6 hours after 100 mg/Kg p.o., control 182.1 ± 0.68
Method: 100 mg/Kg of the derivatives 12 and 13 was given p.o. After 6 hours the animals were sacrificed to collect blood samples and the serum was separated out to find out the levels of NO. Plasma nitrate/nitrite concentration level was measured by commercially available Cayman Kit.

SMILES | liver damage in histopathology (light microscopy) (liver) | % INHIBITION IN WRITHINGS [1] [%] | % INHIBITION IN WRITHINGS ([1]; listed as paracetamol (1)) [%] | % INCREASE IN SGPT/ALT LEVEL (SGPT/ALT; listed as Paracetamol (1)) [%] | % INCREASE IN SGPT/ALT LEVEL (SGPT/ALT; listed as paracetamol (1)) | % INCREASE IN ALP LEVEL (ALP) [%] | % Increase in paw volume Mean ± SEM 2 hr [2] [%] | % Increase in paw volume Mean ± SEM 2 hr ([2]; listed as paracetamol) [%] | % Increase in paw volume Mean ± SEM 2 hr ([2]; listed as paracetamol (1)) [%] | anti-inflammatory activity (in words) [2] | % Increase in paw volume Mean ± SEM 4 hr [2] | % Increase in paw volume Mean ± SEM 4 hr ([2]; listed as paracetamol) [%] | % Increase in paw volume Mean ± SEM 4 hr ([2]; listed as paracetamol (1)) [%] | cox-2 (ovine) inhibition (cox-2 (ovine)) [%] | NO serum level [3] | serum nitrate/nitrite concentration [3] [µmol/L] | % INCREASE IN SGPT/ALT LEVEL (SGPT/ALT) | melting point [°C]
CC(=O)Nc1ccc(O)cc1 [Compound 1, N-(4-hydroxyphenyl)-acetamide, reference compound] | ballooning degeneration, sinusoidal decongestion, portal triad inflammation and spoty necrosis in Zone I | 45.36 ± 1.34 | 45.36±1.34 | 83.11 ± 3.3 | more than 80% | 15.75 ± 1.07 | 38.37 ± 1.26 | 38.37±1.26 | 38.37±1.26 | No significant activity | 58.92 ± 1.56% | 58.92±1.56 | 58.92±1.56 | 24.0 | – | – | – | –
CC(=O)Nc1ccc(OCCO[N+](=O)[O-])cc1 [Compound 12, N-[4-(2-Nitrooxy-ethoxy)-phenyl]-acetamide] | Mild ballooning degeneration | 58.35±1.50 | – | – | – | 4.17 ± 0.62 | 32.68±1.45 | – | – | good anti-inflammatory activity | 26.44±0.10% and 26.44 ± .10% | – | – | 21.0 | 354.2±2.17 | 354.2 ± 2.17 | 27.94 ± 2.7*^,# % | –
CC(=O)Nc1ccc(OCCCCO[N+](=O)[O-])cc1 [Compound 19, N-[4-(4-Nitrooxy-butoxy)-phenyl]-acetamide] | – | – | – | – | – | – | – | – | – | – | – | – | – | – | – | – | – | 92 to 98
CC(=O)Nc1ccc(OCCCCCO[N+](=O)[O-])cc1 [Compound 13, N-[4-(5-Nitrooxy-pentoxy)-phenyl]-acetamide] | didn't cause any significant damage to the liver; also recorded: no significant damage | 61.80±1.69 | – | – | – | 2.85 ± 0.83 | 31.15±1.31 | – | – | – | 28.45±1.28% | – | – | 32.5 | 265.4±2.47 | 265.4 ± 2.47 | 11.72 ± 1.4*^,# % | –
